How the values were obtained:
Acetylcholinesterase = Acetylcholinesterase (Electrophorus electricus, UniProt O42275)
Description: In vitro inhibitory activity against acetylcholinesterase (AChE) in Electrophorus electricus

Cholinesterase [1] = biological target: T1, Cholinesterase (Homo sapiens, UniProt P06276)
Description: In vitro inhibitory activity against Butyrylcholinesterase (BChE) in human serum

Cholinesterase [2] = biological target: T1, Cholinesterase; test: Ratio of inhibitory activity against butyrylcholinesterase (BChE) to that of acetylcholinesterase (AChE)

T1 sequence (P06276 whole entry): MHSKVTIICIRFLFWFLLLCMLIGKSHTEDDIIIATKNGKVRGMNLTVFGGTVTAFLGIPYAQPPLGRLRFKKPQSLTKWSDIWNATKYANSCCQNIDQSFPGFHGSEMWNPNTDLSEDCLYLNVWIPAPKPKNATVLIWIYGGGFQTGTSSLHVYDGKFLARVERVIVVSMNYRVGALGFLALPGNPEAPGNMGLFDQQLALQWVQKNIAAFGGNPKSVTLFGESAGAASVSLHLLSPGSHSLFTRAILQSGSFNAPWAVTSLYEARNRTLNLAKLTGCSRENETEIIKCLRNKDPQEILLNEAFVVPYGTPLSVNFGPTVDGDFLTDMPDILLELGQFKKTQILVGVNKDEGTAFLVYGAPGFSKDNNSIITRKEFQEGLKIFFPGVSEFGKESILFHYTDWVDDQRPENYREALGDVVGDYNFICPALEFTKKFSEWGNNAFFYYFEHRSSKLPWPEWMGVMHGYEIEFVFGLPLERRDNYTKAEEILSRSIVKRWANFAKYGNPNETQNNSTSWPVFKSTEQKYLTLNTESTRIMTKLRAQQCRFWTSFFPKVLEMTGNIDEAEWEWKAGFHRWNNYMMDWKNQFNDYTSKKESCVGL
Chain of Acetylcholinesterase (O42275 whole entry): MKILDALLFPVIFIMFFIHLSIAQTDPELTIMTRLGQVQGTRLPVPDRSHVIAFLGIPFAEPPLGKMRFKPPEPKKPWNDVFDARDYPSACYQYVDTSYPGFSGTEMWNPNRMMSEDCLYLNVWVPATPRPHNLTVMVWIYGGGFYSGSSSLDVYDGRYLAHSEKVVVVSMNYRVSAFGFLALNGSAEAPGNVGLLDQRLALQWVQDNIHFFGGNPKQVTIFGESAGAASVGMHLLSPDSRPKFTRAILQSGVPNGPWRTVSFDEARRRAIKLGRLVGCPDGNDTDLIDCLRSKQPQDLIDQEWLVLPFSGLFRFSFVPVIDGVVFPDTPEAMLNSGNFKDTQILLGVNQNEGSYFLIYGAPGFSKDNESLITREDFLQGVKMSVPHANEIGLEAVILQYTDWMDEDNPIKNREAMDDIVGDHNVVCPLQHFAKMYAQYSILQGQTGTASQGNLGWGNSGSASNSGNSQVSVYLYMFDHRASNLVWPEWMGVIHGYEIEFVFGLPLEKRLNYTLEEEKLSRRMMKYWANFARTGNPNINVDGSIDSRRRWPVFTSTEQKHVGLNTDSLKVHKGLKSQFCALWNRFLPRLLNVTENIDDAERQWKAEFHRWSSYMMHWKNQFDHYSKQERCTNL

Row | SMILES | IC50 (Acetylcholinesterase) | IC50 (Cholinesterase [1]) | Selectivity (Cholinesterase [2])
1 | COc1ccc2c3c1O[C@H]1C[C@@H](O)C=C[C@@]31CCN(C)OC2 | 9900 µM | 960 µM | –
2 | CCOC(=O)N1CC[C@@]23C=C[C@H](O)C[C@@H]2Oc2c(OC)ccc(c23)C1 | 67 µM | 300 µM | 4.5
3 | CCOC(=O)N(C)CC[C@@]12C=C[C@H](O)C[C@@H]1Oc1c(OC)ccc(CO)c12 | 580 µM | 216 µM | –
4 | CCOC(=O)O[C@H]1C=C[C@@]2(CCN(C)C(=O)OCC)c3c(CCl)ccc(OC)c3O[C@H]2C1 | 650 µM | 790 µM | 1.2
5 | CCOC(=O)N(C)CC[C@@]12C=C[C@H](O)C[C@@H]1Oc1c(OC)ccc(C=O)c12 | 1000 µM | 155 µM | –

— ChEMBL document CHEMBL1146616, “Synthesis and structure-activity relationships of open D-Ring galanthamine analogues” (Bioorg Med Chem Lett, 2003)
